A short description of data set [1]: wn = mass fraction of the nth substance listed. To be noted: 303.15 K, 101 kPa, Liquid; for viscosity: Capillary tube (Ostwald / Ubbelohde) method; for mass density: Pycnometric method.
For data set [2] the following is noted: 303.15 K, 101 kPa, Liquid; for viscosity: Capillary tube (Ostwald / Ubbelohde) method; for mass density: Pycnometric method.

Numbers after ± are expanded uncertainties.

By viscosity is commonly meant the resistance of a fluid to flow. One may read the mass density as mass per unit of volume. In the case of `COCCO` [2-methoxyethan-1-ol] + CO, the viscosity worked out at 0.538 ± 0.011 mPa·s in data set [1] (w1 = 0.1), 0.557 ± 0.011 mPa·s in data set [1] (w1 = 0.2), 0.577 ± 0.011 mPa·s in data set [1] (w1 = 0.3) and 1.404 ± 0.023 mPa·s in data set [1] (w1 = 1). The mass density in data set [1] (w1 = 0.1) came out at 798 ± 1 kg/m3; in data set [1] (w1 = 0.2), 817 ± 2 kg/m3; in data set [1] (w1 = 0.3), 833 ± 2 kg/m3; in data set [1] (w1 = 1) it was 956 ± 2 kg/m3.

On to `CO` [methanol] + COCCO, for which, in data set [1] (w2 = 0), the viscosity was found to be 0.523 ± 0.01 mPa·s and the mass density was found to be 782 ± 1 kg/m3.

In the case of `COCCO` [2-methoxyethan-1-ol], in data set [2], the viscosity is given as 1.404 ± 0.023 mPa·s and the mass density stood at 956 ± 2 kg/m3.

Consider `CO` [methanol], for which, in data set [2], the viscosity was 0.523 ± 0.01 mPa·s and the mass density is 782 ± 1 kg/m3.

(Values after the NIST ThermoML archive (doi:10.1021/je900656c).)
